Laboratory results as given in ChEMBL document CHEMBL1133412, “Rational design, synthesis and structure-activity relationships of antitumor (E)-2-benzylidene-1-tetralones and (E)-2-benzylidene-1-indanones” (Bioorg Med Chem Lett, 2000).
pIC50: −log10 of the molar value. Active and inactive are the calls of the source. No cut-off for these calls is given here.

Columns and labels:
Format in all cases: functional, cell-based
[1] = tested on: WI-38; test: Cytotoxicity was evaluated against WI38 tumor cell lines; Slightly active; settings: Homo sapiens
[2] = tested on: B16; test: Cytotoxicity was evaluated against B16 tumor cell lines; Slightly active; settings: Mus musculus
[3] = tested on: NCI-H292; test: Cytotoxicity was evaluated against H292 tumor cell lines; Slightly active; settings: Homo sapiens
[4] = tested on: NIH3T3; test: Cytotoxicity was evaluated against NIH3T3 tumor cell lines; Slightly active; settings: Mus musculus
[5] = tested on: MCF7; test: Cytotoxicity was evaluated against MCF-7 tumor cell lines; Slightly active; settings: Homo sapiens
[6] = tested on: K562; test: Cytotoxicity was evaluated against K562 tumor cell lines; Slightly active; settings: Homo sapiens
[7] = tested on: HL-60; test: Cytotoxicity was evaluated against HL-60 tumor cell lines; Slightly active; settings: Homo sapiens
[8] = tested on: A549; test: Cytotoxicity was evaluated against A549 tumor cell lines; Slightly active; settings: Homo sapiens
[9] = tested on: Jurkat; test: In vitro test for antitumor activity against human Jurkat cell line using a formazan dye (MTT) conversion assay.
[10] = tested on: MOLT-4; test: Cytotoxicity was evaluated against Molt-4 tumor cell lines; Slightly active; settings: Homo sapiens
[11] = tested on: WIL2; test: Cytotoxicity was evaluated against WIL2 tumor cell lines; Slightly active; settings: Homo sapiens
[12] = tested on: CCRF-CEM; test: Cytotoxicity was evaluated against CEM tumor cell lines; Slightly active; settings: Homo sapiens
[13] = tested on: NCI-H596; test: Cytotoxicity was evaluated against H596 tumor cell lines; Slightly active; settings: Homo sapiens
[14] = tested on: L1210; test: Cytotoxicity was evaluated against L1210 tumor cell lines; Slightly active; settings: Mus musculus
[15] = tested on: K562; test: Cytotoxicity was evaluated against K562 tumor cell lines; Inactive; settings: Homo sapiens
[16] = tested on: NCI-H596; test: Cytotoxicity was evaluated against H596 tumor cell lines; Inactive; settings: Homo sapiens
[17] = tested on: WI-38; test: Cytotoxicity was evaluated against WI38 tumor cell lines; Inactive; settings: Homo sapiens
[18] = tested on: MOLT-4; test: Cytotoxicity was evaluated against Molt-4 tumor cell lines; Inactive; settings: Homo sapiens
[19] = tested on: B16; test: Cytotoxicity was evaluated against B16 tumor cell lines; Inactive; settings: Mus musculus
[20] = tested on: L1210; test: Cytotoxicity was evaluated against L1210 tumor cell lines; Inactive; settings: Mus musculus
[21] = tested on: CCRF-CEM; test: Cytotoxicity was evaluated against CEM tumor cell lines; Inactive; settings: Homo sapiens
[22] = tested on: NCI-H292; test: Cytotoxicity was evaluated against H292 tumor cell lines; Inactive; settings: Homo sapiens
[23] = tested on: HL-60; test: Cytotoxicity was evaluated against HL-60 tumor cell lines; Inactive; settings: Homo sapiens
[24] = tested on: A549; test: Cytotoxicity was evaluated against A549 tumor cell lines; Inactive; settings: Homo sapiens
[25] = tested on: NIH3T3; test: Cytotoxicity was evaluated against NIH3T3 tumor cell lines; Inactive; settings: Mus musculus
[26] = tested on: MCF7; test: Cytotoxicity was evaluated against MCF-7 tumor cell lines; Inactive; settings: Homo sapiens
[27] = tested on: WIL2; test: Cytotoxicity was evaluated against WIL2 tumor cell lines; Inactive; settings: Homo sapiens

Compound	pIC50 [9]	Cytotoxicity [1]	Cytotoxicity [2]	Cytotoxicity [3]	Cytotoxicity [4]	Cytotoxicity [5]	Cytotoxicity [6]	Cytotoxicity [15]	Cytotoxicity [16]	Cytotoxicity [17]	Cytotoxicity [18]	Cytotoxicity [19]	Cytotoxicity [20]	Cytotoxicity [21]	Cytotoxicity [22]	Cytotoxicity [23]	Cytotoxicity [24]	Cytotoxicity [25]	Cytotoxicity [26]	Cytotoxicity [27]	also measured
COc1cc2c(cc1OC)C(=O)/C(=C/c1cc(C)ccc1C)C2	4.52	Weak activity	Weak activity	Weak activity	Weak activity	Weak activity	Weak activity														Cytotoxicity [7]: Weak activity; Cytotoxicity [8]: Weak activity; Cytotoxicity [10]: Weak activity; Cytotoxicity [11]: Weak activity; Cytotoxicity [12]: Weak activity; Cytotoxicity [13]: Weak activity; Cytotoxicity [14]: Weak activity
COc1cc2c(cc1OC)C(=O)/C(=C/c1ccc(N)cc1)CC2	4.40	Weak activity	Weak activity	Weak activity	Weak activity	Weak activity	Weak activity														Cytotoxicity [7]: Weak activity; Cytotoxicity [8]: Weak activity; Cytotoxicity [10]: Weak activity; Cytotoxicity [11]: Weak activity; Cytotoxicity [12]: Weak activity; Cytotoxicity [13]: Weak activity; Cytotoxicity [14]: Weak activity
COc1cc2c(cc1OC)C(=O)/C(=C/c1cc(C)c([N+](=O)[O-])c(C)c1)C2	4.60	Weak activity	Weak activity	Weak activity	Weak activity	Weak activity	Weak activity														Cytotoxicity [7]: Weak activity; Cytotoxicity [8]: Weak activity; Cytotoxicity [10]: Weak activity; Cytotoxicity [11]: Weak activity; Cytotoxicity [12]: Weak activity; Cytotoxicity [13]: Weak activity; Cytotoxicity [14]: Weak activity
COc1ccccc1/C=C1\CCc2cc(OC)c(OC)cc2C1=O	< 4.30							inactive	inactive	inactive	inactive	inactive	inactive	inactive	inactive	inactive	inactive	inactive	inactive	inactive	
COc1cc2c(c([N+](=O)[O-])c1OC)C(=O)/C(=C/c1cc(C)c(O)c(C)c1)C2	< 4.30							inactive	inactive	inactive	inactive	inactive	inactive	inactive	inactive	inactive	inactive	inactive	inactive	inactive	
COc1cc2c(cc1OC)C(=O)/C(=C/c1cc(C)c(OC(=O)OCC(C)C)c(C)c1)C2	4.67	Weak activity	Weak activity	Weak activity	Weak activity	Weak activity	Weak activity														Cytotoxicity [7]: Weak activity; Cytotoxicity [8]: Weak activity; Cytotoxicity [10]: Weak activity; Cytotoxicity [11]: Weak activity; Cytotoxicity [12]: Weak activity; Cytotoxicity [13]: Weak activity; Cytotoxicity [14]: Weak activity
COc1cc2c(cc1OC)C(=O)/C(=C/c1ccc(O)c(C(=O)O)c1)CC2	< 4.30							inactive	inactive	inactive	inactive	inactive	inactive	inactive	inactive	inactive	inactive	inactive	inactive	inactive	
COc1ccc2c(c1)C/C(=C\c1cc(C)c(O)c(C)c1)C2=O	< 4.30							inactive	inactive	inactive	inactive	inactive	inactive	inactive	inactive	inactive	inactive	inactive	inactive	inactive	
COc1ccc(/C=C2\CCc3cc(OC)c(OC)cc3C2=O)cc1OC	< 4.30							inactive	inactive	inactive	inactive	inactive	inactive	inactive	inactive	inactive	inactive	inactive	inactive	inactive	
COc1ccc2c(c1)C(=O)/C(=C/c1cc(C)c(O)c(C)c1)C2	< 4.30							inactive	inactive	inactive	inactive	inactive	inactive	inactive	inactive	inactive	inactive	inactive	inactive	inactive	
O=C1/C(=C/c2cc(Cl)cc(Cl)c2)Cc2cc(O)c(O)cc21	< 4.30							inactive	inactive	inactive	inactive	inactive	inactive	inactive	inactive	inactive	inactive	inactive	inactive	inactive	

Now from value to compound, other results behind:

pIC50 [9]	Compound	Cytotoxicity [1]	Cytotoxicity [2]	Cytotoxicity [3]	Cytotoxicity [4]	Cytotoxicity [5]	Cytotoxicity [6]	Cytotoxicity [15]	Cytotoxicity [16]	Cytotoxicity [17]	Cytotoxicity [18]	Cytotoxicity [19]	Cytotoxicity [20]	Cytotoxicity [21]	Cytotoxicity [22]	Cytotoxicity [23]	Cytotoxicity [24]	Cytotoxicity [25]	Cytotoxicity [26]	Cytotoxicity [27]	also measured
4.52	COc1cc2c(c(N)c1O)C/C(=C\c1cc(C)c(O)c(C)c1)C2=O	Weak activity	Weak activity	Weak activity	Weak activity	Weak activity	Weak activity														Cytotoxicity [7]: Weak activity; Cytotoxicity [8]: Weak activity; Cytotoxicity [10]: Weak activity; Cytotoxicity [11]: Weak activity; Cytotoxicity [12]: Weak activity; Cytotoxicity [13]: Weak activity; Cytotoxicity [14]: Weak activity
< 4.30	COc1cc2c(c([N+](=O)[O-])c1OC)C(=O)/C(=C/c1cc(C)c([N+](=O)[O-])c(C)c1)C2							inactive	inactive	inactive	inactive	inactive	inactive	inactive	inactive	inactive	inactive	inactive	inactive	inactive	
< 4.30	COc1ccc(/C=C2\CCc3cc(OC)c(OC)cc3C2=O)cc1							inactive	inactive	inactive	inactive	inactive	inactive	inactive	inactive	inactive	inactive	inactive	inactive	inactive	
< 4.30	COc1ccc(/C=C2\CCc3cc(OC)c(OC)cc3C2=O)c(OC)c1							inactive	inactive	inactive	inactive	inactive	inactive	inactive	inactive	inactive	inactive	inactive	inactive	inactive	
< 4.30	Cc1cc(/C=C2\Cc3cc4c(cc3C2=O)OCO4)cc(C)c1O							inactive	inactive	inactive	inactive	inactive	inactive	inactive	inactive	inactive	inactive	inactive	inactive	inactive	
